What is called IC50 is the concentration that inhibits the measured activity by half. By melting point is commonly meant the temperature of the solid-liquid transition.

Results on 9 compounds are retold here after paper PMC11305403, “Design, synthesis, and antiproliferative screening of new quinoline derivatives bearing a cis-vinyl triamide motif as apoptosis activators and EGFR-TK inhibitors” (RSC Advances, 2024).

One series concerns MCF-7 cell line. As to the kind of experiment: MTT cytotoxic / antiproliferative activity against MCF-7 cell line. It counts as cell-based. Conditions: for IC50: MTT assay, MCF-7 breast adenocarcinoma cells, 24 h treatment; for fold more potent antiproliferative activity than the reference STU: MCF-7, relative to STU IC50. The procedure: S4.2.1. Cytotoxic activity evaluation […]
adenocarcinoma (MCF-7) cell line. Cell viability assay was assessed using MTT assay […]
under 5% CO2. After incubation, the cells were treated with different concentrations of the test hybrid 5 and 6a-h and incubated for 24 h, then 20 µl of MTT solution at 5 […]
Dimethyl sulphoxide (DMSO) in […]
volume of 100 µl was added to each well to dissolve the purple formazan that had formed. The color intensity of the formazan product, which represents the growth […]
570 nm absorbance. The experimental conditions were carried out with at least three replicates, and the experiments were repeated at least three times. […]
(In general: Tetrazolium dyes change colour on reduction, which living cells bring about.)

Series [1] concerns MCF-7 cells. The series is described as follows: Annexin V-FITC/PI apoptosis assay by flow cytometry in MCF-7 cells. It counts as cell-based. Conditions: 48 h. The procedure:
Apoptosis play an important role in organogenesis and in crafting complex tissues during embryonic growth, and in the preservation of tissue homeostasis in adult organism.[44] Numerous clinical disorders, including cancer, autoimmune illness and infectious diseases, are characterised by the deregulation of apoptosis.[45] To ensure the ability of quinoline tethered [2-(4-methoxyphenyl)-cis-vinyl] triamide 6f to activate apoptosis, flow cytometric measurement was carried out using Annexin V which binds to phophatidylserine declared on the outer layed of apoptotic cells and appears fluorescent green and PI which stains DNA and penetrates only dead cells. […] Meanwhile, the proportion of late apoptotic cells rose from 0.21% to 16.65% compared to DMOS controls (Fig. 4). […]
S4.2.3. Apoptosis assay for compound 6f
Apoptosis in MCF-7 cells was investigated using fluorescent Annexin V-FITC/ PI detection kit (BioVision Annexin V-FITC Apoptosis Detection Kit, Catalog #: K101) by flow cytometry assay. MCF-7 cells at a density of 2 × 10^5 per well were treated with compound 6f at the IC50 (µM) for 48 h, then the cells were harvested and stained with Annexin V-FITC/ PI dye for 15 min in the dark at 37 °C. The samples were immediately analyzed using FACS Calibur flow cytometer (Becton and Dickinson, […]
S4.2.4. EGFR kinase Assay […]
according to manufacturer’s instructions using # BPS Bioscience EGFR Kinase Assay
(A flow cytometer gives signals particle by particle.)

The next series deals with T1, EGFR tyrosine kinase (Homo sapiens, UniProt P00533).
T1 construct: purchased BPS Bioscience 40321
The series is described as follows: EGFR kinase assay (BPS Bioscience EGFR Kinase Assay Kit). It counts as biochemical. Conditions: read-out: EGFR inhibitory activity IC50. The text has this:
immediately analyzed using FACS Calibur flow cytometer (Becton and Dickinson,
S4.2.4. EGFR kinase Assay
(1 picture or pasted object on this page, not shown here)

The test system of series [2] is MCF-7 cells. The series is described as follows: Mitochondrial membrane potential (MMP) by flow cytometry in MCF-7 cells. The format is cell-based. The text has this:
A major part of apoptosis process is played by mitochondria.[46] Several active proteins such as cytochrome C and factor that induces apoptosis are two of the active proteins found in mitochondria.[47] The release of such proteins after inhibition of mitochondrial membrane potential (MMP) is crucial in the propagation of apoptosis.[48] […] This decrease in MMP was linked to an increase in Annexin V positive cells. […] According to this, quinoline tethered [2-(4-methoxyphenyl)-cis-vinyl] triamide 6f cause MCF-7 cells to become dysfunction in their mitochondria, which in turn trigger apoptotic cellular death. These outcomes were consistent with early findings that EGFR-TK inhibitors promote apoptosis via the mitochondrial route.

Series [3] has as its system MCF-7 cells. The series is described as follows: Cell cycle analysis by flow cytometry (PI staining) in MCF-7 cells. It counts as cell-based. The following applies: MCF-7, 1.87 μM, 48 h. The text has this:
The cell cycle is related to a series of events responsible for cell division and duplication.[42] The cell cycle presents three distinct phases: G1, S and G2/M phase.[43] Due to the importance of the cell cycle in the process of tumor progression, we evaluated if the cell growth inhibition in MCF-7 occurred due to cell cycle arrest using FACS method. In the present study, flow cytometric measurement was utilized to investigate the effect of quinoline tethered [2-(4-methoxyphenyl)-cis-vinyl] triamide 6f on cellular cycle progression in tested breast cancer cells. In the test, MCF-7 cells were treated with quinoline tethered [2-(4-methoxyphenyl)-cis-vinyl] triamide 6f at a concentration of 1.87 μM, then incubated for 48 h. The cellular cycle distribution was analyzed to identify the definite phase at which quinoline tethered [2-(4-methoxyphenyl)-cis-vinyl] triamide 6f can arrest the cell cycle. […] It is observed that the percentage of cells at G1 phase was increased by 1.2-fold compared to controls (Fig. 3).
S4.2.1. Cytotoxic activity evaluation
To measure the cytotoxic actvity of the prepared derivatives 5 and 6a-h in breast adenocarcinoma (MCF-7) cell line. Cell viability assay was assessed using MTT assay method. Cells at density of 1 x 104 were seeded in a 96-well plate at 37 °C for 24 h under 5% CO2. After incubation, the cells were treated with different concentrations of the test hybrid 5 and 6a-h and incubated for 24 h, then 20 µl of MTT solution at 5 mg/mL was applied and incubated for 4 h at 37 °C. […] The color intensity of the formazan product, which represents the growth condition of the cells, is quantified by using an ELISA plate reader (EXL 800, USA) at 570 nm absorbance. […]
Cell cycle analysis in MCF-7 cells was investigated using fluorescent […] (BioVision EZCellTM Cell Cycle Analysis Kit Catalog #K920) by flow cytometry assay. […] The samples were immediately analyzed using Facs Calibur flow cytometer (Becton and Dickinson, Heidelberg, […]

T1 sequence (P00533 25-1210): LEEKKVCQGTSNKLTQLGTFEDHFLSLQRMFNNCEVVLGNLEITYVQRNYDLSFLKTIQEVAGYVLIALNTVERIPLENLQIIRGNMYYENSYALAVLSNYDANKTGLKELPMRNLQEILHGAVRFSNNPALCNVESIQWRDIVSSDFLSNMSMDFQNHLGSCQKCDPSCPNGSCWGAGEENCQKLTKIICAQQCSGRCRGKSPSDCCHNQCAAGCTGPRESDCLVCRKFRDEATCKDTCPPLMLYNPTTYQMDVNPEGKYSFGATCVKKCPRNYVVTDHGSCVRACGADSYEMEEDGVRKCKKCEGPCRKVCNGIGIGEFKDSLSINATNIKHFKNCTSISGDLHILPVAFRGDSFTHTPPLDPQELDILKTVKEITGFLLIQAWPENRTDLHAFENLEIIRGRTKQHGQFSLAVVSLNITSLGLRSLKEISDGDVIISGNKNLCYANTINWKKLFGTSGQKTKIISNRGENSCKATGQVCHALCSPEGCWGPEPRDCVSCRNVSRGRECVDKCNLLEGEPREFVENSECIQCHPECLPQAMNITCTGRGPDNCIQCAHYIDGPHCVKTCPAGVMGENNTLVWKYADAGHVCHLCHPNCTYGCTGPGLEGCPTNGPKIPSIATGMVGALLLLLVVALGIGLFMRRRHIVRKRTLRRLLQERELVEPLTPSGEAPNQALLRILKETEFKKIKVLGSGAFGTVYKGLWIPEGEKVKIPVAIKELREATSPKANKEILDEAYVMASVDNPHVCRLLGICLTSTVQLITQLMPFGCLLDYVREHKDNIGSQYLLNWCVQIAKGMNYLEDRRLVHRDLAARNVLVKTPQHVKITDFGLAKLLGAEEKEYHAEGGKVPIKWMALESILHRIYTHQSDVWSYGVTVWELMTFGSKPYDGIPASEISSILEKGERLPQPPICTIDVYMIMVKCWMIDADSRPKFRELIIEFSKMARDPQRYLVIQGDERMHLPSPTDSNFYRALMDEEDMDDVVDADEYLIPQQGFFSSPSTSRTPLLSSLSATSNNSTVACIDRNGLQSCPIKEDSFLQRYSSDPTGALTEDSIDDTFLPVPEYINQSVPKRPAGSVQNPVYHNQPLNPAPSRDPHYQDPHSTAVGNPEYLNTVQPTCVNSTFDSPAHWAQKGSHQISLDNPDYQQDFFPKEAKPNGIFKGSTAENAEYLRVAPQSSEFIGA

`O=C(NNC(=O)c1cc(-c2ccc(Br)cc2)nc2ccccc12)/C(=C/c1ccco1)NC(=O)c1ccccc1` [Compound 5, (Z)-N-(3-(2-(2-(4-Bromophenyl)quinoline-4-carbonyl)hydrazinyl)-1-(furan-2-yl)-3-oxoprop-1-en-2-yl)benzamide] came in with a melting point of 188 to 190 °C. In the series on MCF-7 cell line (Homo sapiens, MCF7, 24 h), this compound registered an IC50 of 6.6 ± 0.21 µM. The “fold more potent antiproliferative activity than the reference STU” value with MCF-7 cell line is 1.06–7.10 fold.
In turn, `O=C(NNC(=O)c1cc(-c2ccc(Br)cc2)nc2ccccc12)/C(=C/c1ccc(F)cc1)NC(=O)c1ccccc1` [Compound 6a, (Z)-N-(3-(2-(2-(4-Bromophenyl)quinoline-4-carbonyl)hydrazinyl)-1-(4-fluorophenyl)-3-oxoprop-1-en-2-yl)benzamide] gave a melting point of 177 to 179 °C. This compound also yielded an IC50 in the series on MCF-7 cell line (Homo sapiens, MCF7, 24 h) of 59.8 ± 1.93 µM.
Compound `O=C(NNC(=O)c1cc(-c2ccc(Br)cc2)nc2ccccc12)/C(=C/c1ccc(Cl)cc1)NC(=O)c1ccccc1` [Compound 6b, (Z)-N-(3-(2-(2-(4-Bromophenyl)quinoline-4-carbonyl)hydrazinyl)-1-(4-chlorophenyl)-3-oxoprop-1-en-2-yl)benzamide] showed a melting point of 185 to 187 °C. In the series with MCF-7 cell line (Homo sapiens, MCF7, 24 h), this compound had an IC50 of 8.29 ± 0.27 µM. The “fold more potent antiproliferative activity than the reference STU” value in the series with MCF-7 cell line is reported as 1.06–7.10 fold.
With `O=C(NNC(=O)c1cc(-c2ccc(Br)cc2)nc2ccccc12)/C(=C/c1ccc(Br)cc1)NC(=O)c1ccccc1` [Compound 6c, (Z)-N-(1-(4-Bromophenyl)-3-(2-(2-(4-bromophenyl)quinoline-4-carbonyl)hydrazinyl)-3-oxoprop-1-en-2-yl)benzamide], the melting point is 191 to 193 °C. This compound also yielded an IC50 with MCF-7 cell line (Homo sapiens, MCF7, 24 h) of 19.2 ± 0.62 µM.
`O=C(NNC(=O)c1cc(-c2ccc(Br)cc2)nc2ccccc12)/C(=C/c1ccc([N+](=O)[O-])cc1)NC(=O)c1ccccc1` [Compound 6d, (Z)-N-(3-(2-(2-(4-Bromophenyl)quinoline-4-carbonyl)hydrazinyl)-1-(4-nitrophenyl)-3-oxoprop-1-en-2-yl)benzamide]: the melting point fell in the range of 207 to 209 °C. In the series on MCF-7 cell line (Homo sapiens, MCF7, 24 h), this compound registered an IC50 of 12.4 ± 0.4 µM. The “fold more potent antiproliferative activity than the reference STU” value in the series on MCF-7 cell line is listed as 1.06–7.10 fold.
In turn, `Cc1ccc(/C=C(\NC(=O)c2ccccc2)C(=O)NNC(=O)c2cc(-c3ccc(Br)cc3)nc3ccccc23)cc1` [Compound 6e, (Z)-N-(3-(2-(2-(4-Bromophenyl)quinoline-4-carbonyl)hydrazinyl)-3-oxo-1-p-tolylprop-1-en-2-yl)benzamide] came in with a melting point of 211 to 213 °C. Further, the concentration for half-maximal inhibition (IC50) in the series on MCF-7 cell line (Homo sapiens, MCF7, 24 h) was determined as 1.87 µM. Also, in the series on MCF-7 cell line, the “fold more potent antiproliferative activity than the reference STU” value was 1.06–7.10 fold and 3.03 ± 0.1 µM corresponded to half-maximal inhibition (IC50).
In the case of `COc1ccc(/C=C(\NC(=O)c2ccccc2)C(=O)NNC(=O)c2cc(-c3ccc(Br)cc3)nc3ccccc23)cc1` [Compound 6f, (Z)-N-(3-(2-(2-(4-Bromophenyl)quinoline-4-carbonyl)hydrazinyl)-1-(4-methoxyphenyl)-3-oxoprop-1-en-2-yl)benzamide], the “percentage of primary (early) apoptotic cells” value with MCF-7 cells [1] (MCF-7, 1.87 μM (IC50), lower right quadrant, DMSO control 0.66%) is listed as 9.52%. Moreover, the “proportion of late apoptotic cells” value with MCF-7 cells [1] (MCF-7, 1.87 μM (IC50), upper right quadrant, DMSO control 0.21%) was 16.65%. In the series with MCF-7 cells [1] (MCF-7, 1.87 μM), the “fold increase of early apoptosis compared to controls” value is listed as around 14.4 fold and the “fold increase of late apoptosis compared to controls” value is around 79.3 fold. In the series on MCF-7 cell line (Homo sapiens, MCF7, 24 h), the IC50 worked out at 1.88 µM. In addition, in the series on MCF-7 cell line, the “fold more potent antiproliferative activity than the reference STU” value is 1.06–7.10 fold and inhibition was half-maximal at 1.87 ± 0.06 µM (IC50). The IC50 on EGFR tyrosine kinase came out at 0.19 µM. Moreover, the “decrease of MMP of MCF-7 cells compared to controls (percentage change value)” value with MCF-7 cells [2] (MCF-7, 1.87 μM (IC50 dose), vs DMSO controls) is recorded as 57.93%. Moreover, the “MMPΨ / MCF-7 (flow cytometry reading)” value with MCF-7 cells [2] (MCF-7, 1.87 μM, control 58497) came to 24610. In addition, the “fold increase of percentage of cells at G1 phase compared to controls” value in the series on MCF-7 cells [3] is reported as 1.2 fold. Moreover, in the series on MCF-7 cells [3] (control 14.04%), the “percentage of cells at G2/M phase (%DIP G2/M)” value is on record as 7.12%. In addition, the “percentage of cells at S phase (%DIP S)” value with MCF-7 cells [3] (control 34.30%) stood at 29.32%.
Compound `CC(=O)Oc1c(Br)cc(/C=C(\NC(=O)c2ccccc2)C(=O)NNC(=O)c2cc(-c3ccc(Br)cc3)nc3ccccc23)cc1Br` [Compound 6g, (Z)-4-(2-Benzamido-3-(2-(2-(4-bromophenyl)quinoline-4-carbonyl)hydrazinyl)-3-oxoprop-1-enyl)-2,6-dibromophenyl acetate] returned a melting point of 181 to 183 °C. In the series on MCF-7 cell line (Homo sapiens, MCF7, 24 h), this compound yielded an IC50 of 30.4 ± 0.98 µM.
For `COc1cc(/C=C(\NC(=O)c2ccccc2)C(=O)NNC(=O)c2cc(-c3ccc(Br)cc3)nc3ccccc23)cc(OC)c1OC` [Compound 6h, (Z)-N-(3-(2-(2-(4-Bromophenyl)quinoline-4-carbonyl)hydrazinyl)-3-oxo-1-(3,4,5-trimethoxyphenyl)prop-1-en-2-yl)benzamide], in that order: 169 to 171 °C and 15.6 ± 0.42 µM.
